In US7592336B2, “Hepatitis C virus inhibitors” (Bristol-Myers Squibb Company, priority 2005, dated 2009):
Like-named read-outs stand apart in the source and are kept apart here.

Molecular target: T1, HCV NS3/4A protease complex, BMS strain (UniProt P27958, species not given/STRAIN_BMS)
T1 construct: said of H77 and J4L6S, not expressly of BMS; fused on or other part: A three-lysine solubilising tail at the NS4A C-terminus and purification on Ni-NTA are described for the H77 and J4L6S constructs
Test: FRET peptide assay to monitor HCV NS3/4A proteolytic activity (BMS strain)
Type: biochemical, HCV genotype 1a
Excerpt: HCV NS3 protease complexes, derived from the BMS strain, H77 strain or J4L6S strain, were generated, as described below. These purified recombinant proteins were generated for use in a homogeneous assay (see below) to provide an indication of how effective compounds of the present disclosure would be in inhibiting HCV NS3 proteolytic activity.
Serum from an HCV-infected patient was obtained from Dr. T. Wright, San Francisco Hospital. An engineered full-length cDNA (compliment deoxyribonucleic acid) template of the HCV genome (BMS strain) was constructed from DNA fragments obtained by reverse transcription-PCR (RT-PCR) of serum RNA (ribonucleic acid) and using primers selected on the basis of homology between other genotype 1a strains. From the determination of the entire genome sequence, a genotype 1a was assigned to the HCV isolate according to the classification of Simmonds et al. (See P Simmonds, K A Rose, S Graham, S W Chan, F McOmish, B C Dow, E A Follett, P L Yap and H Marsden, J. Clin. Microbiol., 31(6), 1493-1503 (1993)). […] The infectious clones, H77 (1a genotype) and J4L6S (1b genotype) were obtained from R. Purcell (NIH) and the sequences are published in Genbank (AAB67036, see Yanagi, M., Purcell, R. H., Emerson, S. U. and Bukh, J. Proc. Natl. Acad. Sci. U.S.A. 94(16), 8738-8743 (1997); AF054247, see Yanagi, M., St Claire, M., Shapiro, M., Emerson, S. U., Purcell, R. H. and Bukh, J, Virology 244 (1), 161-172. (1998)).
NS3/4A protease complex-containing fractions were pooled and loaded on a desalting column Superdex-S200 pre-equilibrated with buffer D (25 mM HEPES, pH 7.5, 20% glycerol, 300 mM NaCl, 0.2% Triton X-100, 10 mM βME). Sample was loaded at a flow rate of 1 mL/min. NS3/4A protease complex-containing fractions were pooled and concentrated to approximately 0.5 mg/ml. The purity of the NS3/4A protease complexes, derived from the BMS, H77 and J4L6S strains, were judged to be greater than 90% by SDS-PAGE and mass spectrometry analyses. The enzyme was stored at −80° C., thawed on ice and diluted prior to use in assay buffer.
The purpose of this in vitro assay was to measure the inhibition of HCV NS3 protease complexes, derived from the BMS strain, H77 strain or J4L6S strain, as described above, by compounds of the present disclosure. This assay provides an indication of how effective compounds of the present disclosure would be in inhibiting HCV NS3 proteolytic activity.
In order to monitor HCV NS3/4A protease activity, an NS3/4A peptide substrate was used. The substrate was RET S1 (Resonance Energy Transfer Depsipeptide Substrate; AnaSpec, Inc. cat #22991) (FRET peptide), described by Taliani et al. in Anal. Biochem. 240(2):60-67 (1996). The sequence of this peptide is loosely based on the NS4A/NS4B natural cleavage site for the HCV NS3 protease except there is an ester linkage rather than an amide bond at the cleavage site. The peptide also contains a fluorescence donor, EDANS, near one end of the peptide and an acceptor, DABCYL, near the other end. The fluorescence of the peptide is quenched by […] resonance energy transfer (RET) between the donor and the acceptor, but as the NS3 protease cleaves the peptide the products are released from RET quenching and the fluorescence of the donor becomes apparent.
The peptide substrate was incubated with one of the three recombinant NS3/4A protease complexes, in the absence or presence of a compound of the present disclosure. The inhibitory effects of a compound were determined by monitoring the formation of fluorescent reaction product in real time using a Cytofluor Series 4000.
Assay buffer: 50 mM HEPES, pH 7.5; 0.15M NaCl; 0.1% Triton; 15% Glycerol; 10 mM βME. Substrate: 2 μM final concentration (from a 2 mM stock solution in DMSO stored at −20° C.). HCV NS3/4A protease type 1a (1b), 2-3 nM final concentration (from a 5 μM stock solution in 25 mM HEPES, pH 7.5, 20% glycerol, 300 mM NaCl, 0.2% Triton-X100, 10 mM βME). […]

T1 sequence (P27958 1027-1657, change not shown, one chain of several): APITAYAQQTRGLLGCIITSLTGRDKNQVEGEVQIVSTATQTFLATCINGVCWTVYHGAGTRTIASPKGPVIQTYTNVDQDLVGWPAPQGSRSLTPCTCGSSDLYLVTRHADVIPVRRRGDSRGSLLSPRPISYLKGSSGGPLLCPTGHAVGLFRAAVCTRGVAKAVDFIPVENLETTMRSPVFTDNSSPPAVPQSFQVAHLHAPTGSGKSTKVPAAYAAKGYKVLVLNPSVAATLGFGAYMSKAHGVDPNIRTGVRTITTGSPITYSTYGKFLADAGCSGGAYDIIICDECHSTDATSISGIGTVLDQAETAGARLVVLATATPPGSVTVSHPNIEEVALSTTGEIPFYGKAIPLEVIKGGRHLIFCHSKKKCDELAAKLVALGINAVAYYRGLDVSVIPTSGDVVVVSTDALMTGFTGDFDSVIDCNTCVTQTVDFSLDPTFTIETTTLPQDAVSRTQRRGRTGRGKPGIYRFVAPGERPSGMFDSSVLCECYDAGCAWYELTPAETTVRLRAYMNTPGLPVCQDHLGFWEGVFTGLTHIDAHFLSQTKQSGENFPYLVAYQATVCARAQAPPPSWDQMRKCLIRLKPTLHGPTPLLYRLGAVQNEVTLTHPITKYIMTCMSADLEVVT

C=C[C@@H]1C[C@]1(NC(=O)[C@@H]1C[C@@](O)(c2ccc(-c3ccccc3)cc2)CN1C(=O)[C@@H](NC(=O)OC(C)(C)C)C(C)(C)C)C(=O)NS(=O)(=O)C1CC1 [Compound 3]
IC50 (BMS strain, read-out: IC50 against the NS3/4A BMS strain in the enzyme assay): 4 nM | IC50 (NS3/4A BMS strain, read-out: Activity Range (IC50)): 1 to 100 nM
